The term DC50 denotes the concentration at which degradation of the target reaches its halfway point.

For experiment [1], the target named is SMARCA2 (Homo sapiens (Human), UniProt P51531). Description: SMARCA2 HiBiT degradation assay in HeLa cells. Format: cell-based. The note with it: 18 hours; for DC50: read-out: DC50 (SM2-HeLa) SMARCA2 degradation potency; for Dmax: read-out: Dmax % (SM2-HeLa) maximum SMARCA2 degradation within the concentrations tested. As to the method: (§1) HiBiT peptide knock-in of SMARCA2 in LgBiT expressing HEK293T cells was performed by CRISPR-mediated tagging system as described Promega. The homozygous HiBiT knock-in on c-terminus SMARCA2 was confirmed by sanger sequence. SMARCA2-HiBiT knock-in Hela monoclonal cell (CS302366) and SMARCA4-HiBiT knock-in Hela monoclonal cell (CS3023226) were purchased from Promega. The heterozygous HiBiT-knock-in was confirmed by sanger sequence in both SMARCA2-HiBiT and SMARCA4-HiBiT monoclonal cells.
Sequence of SMARCA2 (P51531 whole entry): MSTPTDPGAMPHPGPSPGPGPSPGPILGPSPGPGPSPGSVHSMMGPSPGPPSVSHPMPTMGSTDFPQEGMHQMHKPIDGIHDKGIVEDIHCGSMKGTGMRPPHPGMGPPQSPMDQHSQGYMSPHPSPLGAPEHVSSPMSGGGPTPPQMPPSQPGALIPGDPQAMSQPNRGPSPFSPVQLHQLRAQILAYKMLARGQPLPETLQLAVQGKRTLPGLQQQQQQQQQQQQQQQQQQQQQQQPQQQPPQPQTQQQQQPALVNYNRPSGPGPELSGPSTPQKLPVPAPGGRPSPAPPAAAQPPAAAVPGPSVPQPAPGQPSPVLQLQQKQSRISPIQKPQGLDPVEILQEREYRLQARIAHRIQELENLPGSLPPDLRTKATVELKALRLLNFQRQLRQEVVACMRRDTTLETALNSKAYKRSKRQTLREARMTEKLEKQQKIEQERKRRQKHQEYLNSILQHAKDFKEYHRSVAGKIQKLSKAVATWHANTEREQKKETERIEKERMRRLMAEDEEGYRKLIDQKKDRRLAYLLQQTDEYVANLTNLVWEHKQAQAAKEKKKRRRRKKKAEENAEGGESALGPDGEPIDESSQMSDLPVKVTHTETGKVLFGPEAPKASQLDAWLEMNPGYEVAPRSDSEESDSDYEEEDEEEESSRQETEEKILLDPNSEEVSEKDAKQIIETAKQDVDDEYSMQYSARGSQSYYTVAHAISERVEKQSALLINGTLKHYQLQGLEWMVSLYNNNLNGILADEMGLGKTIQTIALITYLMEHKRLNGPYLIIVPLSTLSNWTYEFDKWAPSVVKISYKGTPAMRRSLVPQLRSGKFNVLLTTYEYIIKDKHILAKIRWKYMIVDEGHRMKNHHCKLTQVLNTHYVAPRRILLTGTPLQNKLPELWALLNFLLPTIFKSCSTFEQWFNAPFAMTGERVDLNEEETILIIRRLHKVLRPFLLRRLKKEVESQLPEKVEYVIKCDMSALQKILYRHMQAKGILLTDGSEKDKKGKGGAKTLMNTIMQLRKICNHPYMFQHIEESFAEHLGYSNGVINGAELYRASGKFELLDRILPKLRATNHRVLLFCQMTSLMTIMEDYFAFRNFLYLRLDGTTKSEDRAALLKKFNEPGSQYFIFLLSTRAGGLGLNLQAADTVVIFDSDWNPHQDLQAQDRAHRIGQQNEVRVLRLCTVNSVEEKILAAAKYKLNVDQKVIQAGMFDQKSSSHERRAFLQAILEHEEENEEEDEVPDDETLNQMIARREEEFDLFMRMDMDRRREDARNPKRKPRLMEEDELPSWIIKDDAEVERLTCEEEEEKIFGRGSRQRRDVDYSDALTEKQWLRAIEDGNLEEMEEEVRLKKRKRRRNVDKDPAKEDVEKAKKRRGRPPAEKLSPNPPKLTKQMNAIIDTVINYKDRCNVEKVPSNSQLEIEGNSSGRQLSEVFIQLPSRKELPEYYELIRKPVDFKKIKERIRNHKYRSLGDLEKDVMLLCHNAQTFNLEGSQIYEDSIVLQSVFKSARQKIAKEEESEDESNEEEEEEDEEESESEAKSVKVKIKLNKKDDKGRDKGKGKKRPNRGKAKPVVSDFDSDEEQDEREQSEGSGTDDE
(§2) Dispense 10 μL aliquot of prepared Hela-SMARCA2-HiBiT or Hela-SMARCA4-HiBiT cells (1:1 ratio of cells:Trypan Blue (#1450013, Bio-Rad)) onto cell counting slide (#145-0011, Bio-Rad) and obtain cell density and cell viability using cell counter (TC20, Bio-Rad). Remove appropriate volume of resuspended cells from culture flask to accommodate 2500 cells/well @ 20 μL/well. Transfer Hela-HiBiT cells to 50 ml conical (#430290, Corning). Spin down at 1000 rpm for 5 min using tabletop centrifuge (SPINCHRON 15, Beckman). Discard supernatant and resuspend cell pellet in modified EMEM (#30-2003, ATCC) cell culture media containing 10% FBS (F2422-500ML, Sigma), and 1×Penicillin/Streptomycin (200 g/1) (30-002-CI, Corning) to a cell density of 125,000 cells/ml. Dispense 20 μL of resuspended Hela-HiBit cells per well in 384-well TC treated plate (#12-565-343, Thermo Scientific) using standard cassette (#50950372, Thermo Scientific) on Multidrop Combi (#5840310, Thermo Scientific) inside laminar flow cabinet. Dispense test compounds onto plates using digital liquid dispenser (D300E, Tecan). Incubate plates in humidified tissue culture incubator @37° C. for 18 hours. Add 20 ul of prepared Nano-Glo® HiBiT Lytic detection buffer (N3050, Promega) to each well of 384-well plate using small tube cassette (#24073295, Thermo Scientific) on Multidrop Combi, incubate @ RT for 30-60 min. Read plates on microplate reader (Envision 2105, PerkinElmer) using 384 well Ultra-Sensitive luminescence mode. Raw data files and compound information reports are swept into centralized data lake and deconvoluted using automated scripts designed by TetraScience, Inc. Data analysis, curve-fitting and reporting done in Dotmatics Informatics Suite using Screening Ultra module.
On the technique in general: With HiBiT, luminescence reflects the tagged protein that the partner subunit can reach.

Experiment [2] addresses SMARCA4 (Homo sapiens (Human), UniProt P51532). Description: SMARCA4 HiBiT degradation assay in HeLa cells. Format: cell-based. The note with it: 18 hours; for DC50: read-out: DC50 (SM4-HeLa) SMARCA4 degradation potency; for Dmax: HeLa, read-out: Dmax % (SM4-HeLa) maximum SMARCA4 degradation within the concentrations tested. As to the method: as §1, §2

Structures are written as SMILES. Where only a bound is given, the exact number is not on record here.

Sequence of SMARCA4 (P51532 whole entry): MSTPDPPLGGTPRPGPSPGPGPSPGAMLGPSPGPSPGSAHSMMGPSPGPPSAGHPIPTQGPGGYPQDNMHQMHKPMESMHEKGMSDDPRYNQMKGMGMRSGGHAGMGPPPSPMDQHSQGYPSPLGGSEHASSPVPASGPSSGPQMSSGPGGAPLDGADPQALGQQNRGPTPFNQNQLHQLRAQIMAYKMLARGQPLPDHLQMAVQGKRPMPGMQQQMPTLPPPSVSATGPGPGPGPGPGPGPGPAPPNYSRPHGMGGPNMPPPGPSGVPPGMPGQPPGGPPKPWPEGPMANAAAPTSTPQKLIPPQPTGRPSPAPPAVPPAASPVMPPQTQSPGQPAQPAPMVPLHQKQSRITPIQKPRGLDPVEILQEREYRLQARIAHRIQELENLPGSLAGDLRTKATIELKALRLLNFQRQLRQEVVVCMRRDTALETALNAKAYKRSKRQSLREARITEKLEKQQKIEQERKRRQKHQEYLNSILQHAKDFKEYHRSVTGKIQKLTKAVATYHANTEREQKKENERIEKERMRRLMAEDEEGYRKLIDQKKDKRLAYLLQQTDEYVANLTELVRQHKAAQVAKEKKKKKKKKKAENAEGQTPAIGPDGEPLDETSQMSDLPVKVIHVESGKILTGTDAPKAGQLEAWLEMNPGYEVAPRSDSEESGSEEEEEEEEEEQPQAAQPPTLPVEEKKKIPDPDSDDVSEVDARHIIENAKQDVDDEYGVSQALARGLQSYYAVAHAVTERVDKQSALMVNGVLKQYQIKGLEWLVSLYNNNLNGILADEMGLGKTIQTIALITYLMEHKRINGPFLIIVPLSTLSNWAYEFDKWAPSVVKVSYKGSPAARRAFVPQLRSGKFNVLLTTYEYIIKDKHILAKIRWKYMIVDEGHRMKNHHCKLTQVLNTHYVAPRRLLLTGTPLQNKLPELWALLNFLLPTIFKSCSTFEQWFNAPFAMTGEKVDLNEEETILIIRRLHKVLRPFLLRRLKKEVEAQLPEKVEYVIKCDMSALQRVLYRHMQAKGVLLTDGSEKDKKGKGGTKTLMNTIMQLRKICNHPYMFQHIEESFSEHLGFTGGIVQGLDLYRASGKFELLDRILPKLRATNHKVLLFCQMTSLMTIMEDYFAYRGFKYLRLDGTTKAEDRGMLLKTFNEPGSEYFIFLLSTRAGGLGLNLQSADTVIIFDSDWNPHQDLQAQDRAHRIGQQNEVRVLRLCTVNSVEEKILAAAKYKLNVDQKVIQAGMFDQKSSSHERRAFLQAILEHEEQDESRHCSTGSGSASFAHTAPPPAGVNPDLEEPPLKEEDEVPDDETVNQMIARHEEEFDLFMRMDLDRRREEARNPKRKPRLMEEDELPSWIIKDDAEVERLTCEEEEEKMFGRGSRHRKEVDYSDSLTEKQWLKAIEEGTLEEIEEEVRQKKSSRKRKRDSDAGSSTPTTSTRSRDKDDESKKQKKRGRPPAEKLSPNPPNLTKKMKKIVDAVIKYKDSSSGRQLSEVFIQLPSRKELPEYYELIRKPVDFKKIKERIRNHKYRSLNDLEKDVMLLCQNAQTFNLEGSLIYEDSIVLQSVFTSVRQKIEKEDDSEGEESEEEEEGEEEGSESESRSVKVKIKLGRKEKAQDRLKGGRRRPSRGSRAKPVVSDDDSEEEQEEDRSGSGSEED

In the case of `Cc1ncsc1-c1ccc([C@H](C)NC(=O)[C@@H]2C[C@@H](O)CN2C(=O)[C@@H](c2cc(OCCN3CCCC(N4CCN5c6cc(-c7ccccc7O)nnc6NC[C@H]5C4)C3)no2)C(C)C)cc1` (single isomer, unassigned) [Example 41], the DC50 in experiment [1] and in experiment [2] was less than 100 nM in each case. The Dmax in experiment [1] and in experiment [2] was greater than 75% in each case.
For the molecule `Cc1ncsc1-c1ccc([C@H](C)NC(=O)[C@@H]2C[C@@H](O)CN2C(=O)[C@@H](c2cc(OCCN3CCCC(N4CCN5c6cc(-c7ccccc7O)nnc6NC[C@H]5C4)C3)no2)C(C)C)cc1` (single isomer, unassigned) [Example 42], the DC50 in experiment [1] and in experiment [2] was less than 100 nM each time.
With `Cc1ncsc1-c1ccc([C@H](C)NC(=O)[C@@H]2C[C@@H](O)CN2C(=O)[C@@H](c2cc(O[C@H](C)CN3CCC(N4CCN5c6cc(-c7ccccc7O)nnc6NC[C@H]5C4)C3)no2)C(C)C)cc1` (single isomer, unassigned) [Example 50], the DC50 in experiment [1] and in experiment [2] was less than 100 nM in each case. Moreover, the Dmax in experiment [1] and in experiment [2] was greater than 75% each time.
As for `Cc1ncsc1-c1ccc([C@H](C)NC(=O)[C@@H]2C[C@@H](O)CN2C(=O)[C@@H](c2cc(O[C@H](C)CN3CCC(N4CCN5c6cc(-c7ccccc7O)nnc6NC[C@H]5C4)C3)no2)C(C)C)cc1` (single isomer, unassigned) [Example 51], in experiment [1], the “Dmax % (SM2-HeLa) maximum SMARCA2 degradation within the concentrations tested” value is given as “A/A (A = Dmax >75%)” and the DC50 is less than 100 nM. In addition, in experiment [2], the “Dmax % (SM4-HeLa) maximum SMARCA4 degradation within the concentrations tested” value is reported as “A/A (A = Dmax >75%)” and the DC50 was less than 100 nM.
Take `Cc1ncsc1-c1ccc([C@H](C)NC(=O)[C@@H]2C[C@@H](O)CN2C(=O)[C@@H](c2cc(OCCN3CCC(N4CCN5c6cc(-c7ccccc7O)nnc6NC[C@H]5C4)C(C)C3)no2)C(C)C)cc1` (single isomer, unassigned) [Example 55]: in experiment [1], the DC50 was less than 100 nM and the Dmax was greater than 75%. In experiment [2], the DC50 was less than 100 nM and the Dmax was greater than 75%.
For `Cc1ncsc1-c1ccc([C@H](C)NC(=O)[C@@H]2C[C@@H](O)CN2C(=O)[C@@H](c2cc(OCCN3CCC(C(C)N4CCN5c6cc(-c7ccccc7O)nnc6NC[C@H]5C4)CC3)no2)C(C)C)cc1` (single isomer, unassigned) [Example 58], in experiment [1], the DC50 was less than 100 nM and the Dmax was greater than 75%. Further, in experiment [2], the 50% degradation concentration (DC50) was less than 100 nM and the Dmax was greater than 75%.
As for `Cc1ncsc1-c1ccc([C@H](C)NC(=O)[C@@H]2C[C@@H](O)CN2C(=O)[C@@H](c2cc(OCCN3CCC(C(C)N4CCN5c6cc(-c7ccccc7O)nnc6NC[C@H]5C4)CC3)no2)C(C)C)cc1` (single isomer, unassigned) [Example 59], the DC50 in experiment [1] and in experiment [2] was less than 100 nM in each case.
For the molecule `Cc1ncsc1-c1ccc([C@H](C)NC(=O)[C@@H]2C[C@@H](O)CN2C(=O)[C@@H](c2cc(OCCN3CCC(N4CCC(N5CCN6c7cc(-c8ccccc8O)nnc7NC[C@H]6C5)C4)CC3)no2)C(C)C)cc1` (single isomer, unassigned) [Example 69], in experiment [1], the DC50 is less than 100 nM and the Dmax was greater than 75%. For the same molecule, in experiment [2], the DC50 is less than 100 nM and the Dmax is greater than 75%.
As for `Cc1ncsc1-c1ccc([C@H](C)NC(=O)[C@@H]2C[C@@H](O)CN2C(=O)[C@@H](c2cc(OCCN3CCC(N4CCC(N5CCN6c7cc(-c8ccccc8O)nnc7NC[C@H]6C5)C4)CC3)no2)C(C)C)cc1` (single isomer, unassigned) [Example 70], the DC50 in experiment [1] and in experiment [2] was less than 100 nM throughout.
As to `Cc1ncsc1-c1ccc([C@H](C)NC(=O)[C@@H]2C[C@@H](O)CN2C(=O)[C@@H](c2cc(OCCN3CCCC(CN4CCN5c6cc(-c7ccccc7O)nnc6NC[C@H]5C4)C3)no2)C(C)C)cc1` (single isomer, unassigned) [Example 86], the DC50 in experiment [1] and in experiment [2] was less than 100 nM in each case. The Dmax in experiment [1] and in experiment [2] was greater than 75% throughout.
Regarding `Cc1ncsc1-c1ccc([C@H](C)NC(=O)[C@@H]2C[C@@H](O)CN2C(=O)[C@@H](c2cc(OCCN3CCC(N4CCC(N5CCN6c7cc(-c8ccccc8O)nnc7NC[C@H]6C5)CC4)C3)no2)C(C)C)cc1` (stereo partly drawn) [Example 25, (2S,4R)-4-hydroxy-1-((2R)-2-(3-(2-(3-(4-((S)-2-(2-hydroxyphenyl)-5,6,6a,7,9,10-hexahydro-8H-pyrazino[1′,2′:4,5]pyrazino[2,3-c]pyridazin-8-yl)piperidin-1-yl)pyrrolidin-1-yl)ethoxy)isoxazol-5-yl)-3-methylbutanoyl)-N-((S)-1-(4-(4-methylthiazol-5-yl)phenyl)ethyl)pyrrolidine-2-carboxamide], the DC50 is less than 100 nM in experiment [1] and 100 to 1000 nM in experiment [2]. Further, the results for the Dmax in experiment [1] and in experiment [2] were greater than 75% and 50 to 75%, respectively.
For `Cc1ncsc1-c1ccc([C@H](C)NC(=O)[C@@H]2C[C@@H](O)CN2C(=O)[C@@H](c2cc(OCCN3CCC(N4CCC(N5CCN6c7cc(-c8ccccc8O)nnc7NC[C@H]6C5)CC4)C3)no2)C(C)C)cc1` (stereo partly drawn) [Example 26, (2S,4R)-4-hydroxy-1-((2R)-2-(3-(2-(3-(4-((S)-2-(2-hydroxyphenyl)-5,6,6a,7,9,10-hexahydro-8H-pyrazino[1′,2′:4,5]pyrazino[2,3-c]pyridazin-8-yl)piperidin-1-yl)pyrrolidin-1-yl)ethoxy)isoxazol-5-yl)-3-methylbutanoyl)-N-((S)-1-(4-(4-methylthiazol-5-yl)phenyl)ethyl)pyrrolidine-2-carboxamide], the DC50 in experiment [1] was less than 100 nM; in experiment [2] it was 100 to 1000 nM.
Regarding `Cc1ncsc1-c1ccc([C@H](C)NC(=O)[C@@H]2C[C@@H](O)CN2C(=O)[C@@H](c2cc(O[C@@H](C)C(=O)N3CCC(N4CCN5c6cc(-c7ccccc7O)nnc6NC[C@H]5C4)CC3)no2)C(C)C)cc1` [Example 27, (2S,4R)-4-hydroxy-1-((R)-2-(3-(((S)-1-(4-((S)-2-(2-hydroxyphenyl)-5,6,6a,7,9,10-hexahydro-8H-pyrazino[1′,2′:4,5]pyrazino[2,3-c]pyridazin-8-yl)piperidin-1-yl)-1-oxopropan-2-yl)oxy)isoxazol-5-yl)-3-methylbutanoyl)N-((S)-1-(4-(4-methylthiazol-5-yl)phenyl)ethyl)pyrrolidine-2-carboxamide], in experiment [1], the DC50 was less than 100 nM and the Dmax was greater than 75%. In addition, in experiment [2], the DC50 lay within 100 to 1000 nM and the Dmax fell in the range of 50 to 75%.
In the case of `Cc1ncsc1-c1ccc([C@H](C)NC(=O)[C@@H]2C[C@@H](O)CN2C(=O)C(c2cc(O[C@H](C)C(=O)N3CCC(N4CCN5c6cc(-c7ccccc7O)nnc6NC[C@H]5C4)C3)no2)C(C)C)cc1` (stereo partly drawn) [Example 28, (2S,4R)-4-hydroxy-1-(2-(3-(((2R)-1-(3-((S)-2-(2-hydroxyphenyl)-5,6,6a,7,9,10-hexahydro-8H-pyrazino[1′,2′:4,5]pyrazino[2,3-c]pyridazin-8-yl)pyrrolidin-1-yl)-1-oxopropan-2-yl)oxy)isoxazol-5-yl)-3-methylbutanoyl)-N-((S)-1-(4-(4-methylthiazol-5-yl)phenyl)ethyl)pyrrolidine-2-carboxamide], in experiment [1], the DC50 is less than 100 nM and the Dmax is greater than 75%. Also, in experiment [2], the DC50 was 100 to 1000 nM and the Dmax was no more than 50%.
Take `Cc1ncsc1-c1ccc([C@H](C)NC(=O)[C@@H]2C[C@@H](O)CN2C(=O)C(c2cc(O[C@H](C)C(=O)N3CCC(N4CCN5c6cc(-c7ccccc7O)nnc6NC[C@H]5C4)C3)no2)C(C)C)cc1` (stereo partly drawn) [Example 29, (2S,4R)-4-hydroxy-1-(2-(3-(((2R)-1-(3-((S)-2-(2-hydroxyphenyl)-5,6,6a,7,9,10-hexahydro-8H-pyrazino[1′,2′:4,5]pyrazino[2,3-c]pyridazin-8-yl)pyrrolidin-1-yl)-1-oxopropan-2-yl)oxy)isoxazol-5-yl)-3-methylbutanoyl)-N-((S)-1-(4-(4-methylthiazol-5-yl)phenyl)ethyl)pyrrolidine-2-carboxamide]: the DC50 in experiment [1] was less than 100 nM; in experiment [2], 100 to 1000 nM.

Source of the values: patent US20240018158A1, “BRM TARGETING COMPOUNDS AND ASSOCIATED METHODS OF USE” (Prelude Therapeutics Incorporated, priority 2020, published 2024).
